Assay results published in patent US11090292B2, “Compositions and methods of use of an inappetance-controlling compound” (Aratana Therapeutics, Inc., priority 2012, dated 2021).
Like-named read-outs stand apart in the source and are kept apart here.

What was measured:
[1] = Example 12 cat probe formulation study and pharmacokinetic analysis; assay type: in vivo, cats; conditions: for peak in serum concentration of capromorelin / time post administration of peak serum concentration: Day 0
Description: (§1) Similar to some of the other pharmacokinetic analyses conducted in dogs and cats, an additional pharmacokinetic study was conducted in cats to assess capromorelin formulations that allow sufficient drug to circulate to produce appetite stimulation and to define the capromorelin pharmacokinetic profile in cats. Briefly, twelve cats were randomized into Group 1 (six cats) and Group 2 (six cats). Group 1 received an intravenous formulation that included 0.75 mg/kg of capromorelin dissolved in sterile water and Group 2 received a previously tested formulation via oral gavage. Food consumption was determined daily for all cats. Specifically, animals were offered feed at approximately 11:00 AM, with the removal of feed at approximately 3:00 PM. Upon removal of feed, the amount consumed was calculated. […] Initially, the cats were given a seven day acclimation period to adjust to the experimental conditions and feed provided. After the acclimation period, on Day 0, all animals in Group 1 received an intravenous injection of the composition containing a dose of 0.75 mg/kg of capromorelin. On Day 0, the animals in Group 2 received an oral administration of the formulation via gavage at a dose of 3 mg/kg of capromorelin. On Day 0, serum samples were taken from the Group 1 animals at time 0 (pre-administration) and 5 minutes, 10 minutes, 30 minutes, 1 h, 2 h, 4 h, 6 h, 8 h, and 12 h post administration and serum samples were also taken from the Group 2 animals at time 0 (per-administration) and 15 minutes, 30 minutes, 45 minutes, 1 h, 2 h, 4 h, 6 h, 8 h, and 12 h post administration.

IGF-1 [2] = assay: Example 5: serum IGF-1; assay type: in vivo, Beagle dogs; conditions: by Day 4, remained elevated on Day 7, Groups 2-4
Description: In order to further refine the dosing regimen that would provide an appropriate blood profile of capromorelin and desired results from the perspective of increased food intake and weight gain, an additional series of experiments were conducted. In these experiments, twenty-four adult (male and female) Beagle dogs weighing approximately 9 to 13 kilograms were randomly divided into four groups. Group 1 received a placebo formulation, without any active compound, two times per day; Group 2 received a composition comprising 3 mg/kg of body weight of capromorelin one time per day; Group 3 received a composition comprising 4.5 mg/kg of body weight of capromorelin one time per day; and Group 4 received a composition comprising 3 mg/kg of body weight of capromorelin two times per day. […]
In these experiments, the animals were orally administered the flavored formulation at approximately 8:00 AM and, for Group 4 only, again at 6:00 PM. […] Food consumption was calculated and recorded on Days −7 through Day 7. Baseline food consumption was calculated for each individual dog as the average number of grams of food consumed on Days −3, −2, and −1. The study period food consumption was calculated for each individual dog as the average of Days 1 through 7. […]

[3] = Example 5: capromorelin concentration in serum; assay type: in vivo, Beagle dogs
Description: In order to further refine the dosing regimen that would provide an appropriate blood profile of capromorelin and desired results from the perspective of increased food intake and weight gain, an additional series of experiments were conducted. In these experiments, twenty-four adult (male and female) Beagle dogs weighing approximately 9 to 13 kilograms were randomly divided into four groups. Group 1 received a placebo formulation, without any active compound, two times per day; Group 2 received a composition comprising 3 mg/kg of body weight of capromorelin one time per day; Group 3 received a composition comprising 4.5 mg/kg of body weight of capromorelin one time per day; and Group 4 received a composition comprising 3 mg/kg of body weight of capromorelin two times per day.
In particular, on the first day of dosing, Day 1, through the last day of dosing, Day 7, the compositions were orally administered (i.e., using a syringe) to the animals in a flavored formulation of the following composition: […]
In these experiments, the animals were orally administered the flavored formulation at approximately 8:00 AM and, for Group 4 only, again at 6:00 PM. The animals were fed at 10:00 AM beginning seven days prior to Day 1 and continuing for the duration of the study. The animals were offered twice the normal amount of food. Approximately two hours after the food offering, the remainder was removed and weighed to assess food intake. This restricted feeding regime was started at Day −7 to allow the animals to transition to a normal feed intake before the study was initiated. Food consumption was calculated and recorded on Days −7 through Day 7. Baseline food consumption was calculated for each individual dog as the average number of grams of food consumed on Days −3, −2, and −1. The study period food consumption was calculated for each individual dog as the average of Days 1 through 7. Body weights were collected on Days −1, 3, and 7. […]

[4] = Example 9 four-day cat dosing regimen study: food consumption and body weight; assay type: in vivo, cats; conditions: for increase in body weight relative to baseline measurements: four days
Description: A four-day study was performed to further assess the pharmacokinetics of formulation 8 from Example 3 (i.e., the most “well-accepted” formulation) in cats. Moreover, the administration of formulation 8 was also analyzed to determine if administration of this formulation could induce sustained production of IGF-1 and relatively depressed, mitigated, or lower levels of cortisol. The different capromorelin-dosing regimens were also assessed for the impact on food intake and changes in body mass.
Twenty-four adult cats were divided into one of four treatment groups, with all four groups as active treatment groups. Each of the active treatment groups included 6 cats. The first group received a sterile injection of a capromorelin composition containing a 0.75 mg/kg concentration of capromorelin once per day during the four-day experiment. The second group received a once-daily sterile injection of a capromorelin composition at a concentration of 2 mg/kg. The third group received a once-daily dose of a capromorelin composition at a concentration of 2 mg/kg, via oral gavage. The fourth group received a once-daily dose of a capromorelin composition containing capromorelin at a concentration of 4 mg/kg, via oral gavage.
During the seven day study period, on an at least once-daily basis, each of the cats was monitored for clinical observations, mortality, moribundity, body mass, acceptability/palatability, and food consumption. Serum samples were taken to measure capromorelin concentration, IGF-1 concentration, and cortisol concentration. Serum samples were taken on days 1 and 4 immediately prior to dosing (0 minutes) and 30, 60, 90, 120, 240, 360, and/or 480 minutes post dosing. Additional serum samples were taken at 8 AM on Day 7 of the study to assess long-term impact of the active treatments.

IGF-1 [5] = assay: Example 12: serum IGF-1; assay type: in vivo, cats; conditions: Day 0
Description: as §1, with “On Day 0, serum samples were taken from the Group 1 animals at time 0 (pre-administration) and 5 minutes, 10 minutes, 30 minutes, 1 h, 2 h, 4 h, 6 h, 8 h, and 12 h post administration and serum samples were also taken from the Group 2 animals at time 0 (per-administration) and 15 minutes, 30 minutes, 45 minutes, 1 h, 2 h, 4 h, 6 h, 8 h, and 12 h post administration.” left out

[6] = Group 1, intravenous 0.75 mg/kg

With `CN1N=C2CCN(C(=O)[C@@H](COCc3ccccc3)NC(=O)C(C)(C)N)C[C@@]2(Cc2ccccc2)C1=O.O=C(O)C(O)C(O)C(=O)O` [capromorelin] the “peak in serum concentration of capromorelin” value [1, 6] was “around 625 ng/mL”, the “time post administration of peak serum concentration” value [1, 6] was “around 5 minutes” and the “peak in serum concentration of capromorelin” value ([1]; Group 2, oral gavage 3 mg/kg) was “around 150 ng/mL”. For the same compound, the “time post administration of peak serum concentration” value ([1]; Group 2, oral gavage 3 mg/kg) was “around 2 hours”, the clearance ([1]; cat, serum, Group 1, intravenous 0.75 mg/kg, read-out: clearance of capromorelin) was about 30 mL/min/kg and the half-life ([1]; cat, serum, Group 1, intravenous 0.75 mg/kg, read-out: terminal half-life of capromorelin (converted)) was about 54 min. The Cmax ([1]; cat, serum, Group 2, oral gavage 3 mg/kg) was 149 ng/mL, the half-life ([1]; cat, serum, Group 2, oral gavage 3 mg/kg, read-out: mean-terminal half-life (converted)) was 62.4 min and the “IGF-1 levels in treated animals” value (IGF-1 [2]) was “sustained increase”. For the same compound, the “serum capromorelin by 8 hours” value ([3]; Days 1 and 7, Groups 2-4) was “back to baseline levels”, the “time post administration of initial spike of serum capromorelin” value ([3]; Days 1 and 7, Groups 2-4) was 30 min and the capromorelin accumulation ([3]; seven days of dosing) was “no evidence of capromorelin accumulation”. The “increase in body weight relative to baseline measurements” value ([4]; 0.75 mg/kg sterile injection once daily) was 1.33%, the “increase in body weight relative to baseline measurements” value ([4]; 2 mg/kg oral once daily) was 0.70% and the “increase in body weight relative to baseline measurements” value ([4]; 2 mg/kg sterile injection once daily) was 2.37%. For the same compound, the “increase in body weight relative to baseline measurements” value ([4]; 4 mg/kg oral once daily) was 1.47%, the “food consumed relative to prior days of the experiment” value ([4]; sterile injectable formulations (0.75, 2 mg/kg) or 4 mg/kg oral gavage, once daily) was “consumed more food on day 4” and the “IGF-1 levels in the serum, Group 1 (IV 0.75 mg/kg) compared to Group 2 (oral 3 mg/kg)” value (IGF-1 [5]) was “greater increased in IGF-1 levels”.
